In ChEMBL document CHEMBL5465560, “Selectivity Literature for EUbOPEN Chemogenomic Library” (2024):

How the values were obtained:
[1] = molecular target: Non-receptor tyrosine-protein kinase TYK2 (Homo sapiens, UniProt P29597); settings: at 10 µM
[2] = molecular target: T1, Serine/threonine-protein kinase VRK1 (Homo sapiens) (UniProt Q99986); assay: Selectivity interaction (Kinase panel (DSF assay)) EUB0001559a VRK1
T1 sequence (whole entry): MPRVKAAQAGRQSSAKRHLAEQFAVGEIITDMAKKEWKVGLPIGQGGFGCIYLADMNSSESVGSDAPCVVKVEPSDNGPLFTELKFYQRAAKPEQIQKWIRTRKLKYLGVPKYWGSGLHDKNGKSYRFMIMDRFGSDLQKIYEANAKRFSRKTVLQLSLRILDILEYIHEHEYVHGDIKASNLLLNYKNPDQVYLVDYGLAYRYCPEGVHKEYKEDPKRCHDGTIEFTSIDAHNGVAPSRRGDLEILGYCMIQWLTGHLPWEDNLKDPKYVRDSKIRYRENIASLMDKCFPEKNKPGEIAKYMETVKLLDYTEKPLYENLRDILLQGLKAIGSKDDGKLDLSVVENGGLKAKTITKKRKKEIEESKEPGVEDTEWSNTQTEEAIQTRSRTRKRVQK

[3] = molecular target: T2, Mitogen-activated protein kinase kinase kinase kinase 3 (Homo sapiens) (UniProt Q8IVH8); assay: Selectivity interaction (KinomeScan (DiscoverX)) EUB0000666a MAP4K3; settings: at 10 µM
T2 sequence (whole entry): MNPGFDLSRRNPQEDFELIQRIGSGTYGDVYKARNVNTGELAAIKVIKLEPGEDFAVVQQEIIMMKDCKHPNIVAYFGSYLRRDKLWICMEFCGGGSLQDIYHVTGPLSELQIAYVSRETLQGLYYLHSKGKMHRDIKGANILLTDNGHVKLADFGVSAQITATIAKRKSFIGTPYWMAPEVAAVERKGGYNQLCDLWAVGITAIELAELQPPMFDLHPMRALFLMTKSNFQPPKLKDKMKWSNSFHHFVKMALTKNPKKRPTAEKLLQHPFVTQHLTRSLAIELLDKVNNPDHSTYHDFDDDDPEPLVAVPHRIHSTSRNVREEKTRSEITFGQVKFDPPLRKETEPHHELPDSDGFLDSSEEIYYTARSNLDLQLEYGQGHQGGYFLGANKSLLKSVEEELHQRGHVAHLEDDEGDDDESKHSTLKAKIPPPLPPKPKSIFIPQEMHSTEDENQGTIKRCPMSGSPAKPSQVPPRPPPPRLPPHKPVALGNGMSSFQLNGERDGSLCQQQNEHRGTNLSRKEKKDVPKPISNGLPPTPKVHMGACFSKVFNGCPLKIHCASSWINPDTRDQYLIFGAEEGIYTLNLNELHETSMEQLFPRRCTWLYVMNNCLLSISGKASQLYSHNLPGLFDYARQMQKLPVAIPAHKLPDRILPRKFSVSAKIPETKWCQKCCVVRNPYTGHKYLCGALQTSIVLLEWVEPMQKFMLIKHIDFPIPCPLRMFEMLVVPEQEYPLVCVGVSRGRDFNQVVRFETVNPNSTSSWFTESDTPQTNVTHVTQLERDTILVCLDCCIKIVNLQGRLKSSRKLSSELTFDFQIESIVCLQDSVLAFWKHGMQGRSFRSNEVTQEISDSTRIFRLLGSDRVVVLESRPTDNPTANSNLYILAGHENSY

[4] = molecular target: T3, Ephrin type-B receptor 3 (Homo sapiens) (UniProt P54753); assay: Selectivity interaction (KinomeScan (DiscoverX)) EUB0000607a EPHB3; settings: at 10 µM
T3 sequence (whole entry): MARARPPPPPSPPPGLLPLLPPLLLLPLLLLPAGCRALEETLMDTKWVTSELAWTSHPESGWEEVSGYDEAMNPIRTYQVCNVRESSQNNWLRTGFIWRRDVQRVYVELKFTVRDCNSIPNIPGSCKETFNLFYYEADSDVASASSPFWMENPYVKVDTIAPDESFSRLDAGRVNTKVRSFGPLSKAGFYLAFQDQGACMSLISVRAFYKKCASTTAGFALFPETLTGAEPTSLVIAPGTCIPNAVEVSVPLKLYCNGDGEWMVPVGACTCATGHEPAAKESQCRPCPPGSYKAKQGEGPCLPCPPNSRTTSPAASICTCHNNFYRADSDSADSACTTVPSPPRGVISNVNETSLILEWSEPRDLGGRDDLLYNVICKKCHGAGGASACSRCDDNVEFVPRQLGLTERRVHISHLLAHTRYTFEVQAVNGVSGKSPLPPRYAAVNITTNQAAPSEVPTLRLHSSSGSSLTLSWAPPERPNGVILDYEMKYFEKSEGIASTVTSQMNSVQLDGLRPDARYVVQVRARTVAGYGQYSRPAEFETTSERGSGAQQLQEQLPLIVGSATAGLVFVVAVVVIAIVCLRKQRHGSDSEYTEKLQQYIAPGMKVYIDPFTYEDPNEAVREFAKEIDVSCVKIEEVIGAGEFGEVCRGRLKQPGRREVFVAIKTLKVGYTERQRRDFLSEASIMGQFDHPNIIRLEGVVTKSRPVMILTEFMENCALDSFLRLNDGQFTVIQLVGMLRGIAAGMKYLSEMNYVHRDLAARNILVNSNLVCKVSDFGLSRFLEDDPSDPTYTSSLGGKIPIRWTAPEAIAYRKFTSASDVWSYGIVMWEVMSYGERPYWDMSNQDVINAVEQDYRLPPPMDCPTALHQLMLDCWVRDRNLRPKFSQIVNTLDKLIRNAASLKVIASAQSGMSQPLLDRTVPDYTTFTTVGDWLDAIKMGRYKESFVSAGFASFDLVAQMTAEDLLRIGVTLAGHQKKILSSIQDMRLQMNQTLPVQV

Non-receptor tyrosine-protein kinase TYK2, sequence (P29597 whole entry): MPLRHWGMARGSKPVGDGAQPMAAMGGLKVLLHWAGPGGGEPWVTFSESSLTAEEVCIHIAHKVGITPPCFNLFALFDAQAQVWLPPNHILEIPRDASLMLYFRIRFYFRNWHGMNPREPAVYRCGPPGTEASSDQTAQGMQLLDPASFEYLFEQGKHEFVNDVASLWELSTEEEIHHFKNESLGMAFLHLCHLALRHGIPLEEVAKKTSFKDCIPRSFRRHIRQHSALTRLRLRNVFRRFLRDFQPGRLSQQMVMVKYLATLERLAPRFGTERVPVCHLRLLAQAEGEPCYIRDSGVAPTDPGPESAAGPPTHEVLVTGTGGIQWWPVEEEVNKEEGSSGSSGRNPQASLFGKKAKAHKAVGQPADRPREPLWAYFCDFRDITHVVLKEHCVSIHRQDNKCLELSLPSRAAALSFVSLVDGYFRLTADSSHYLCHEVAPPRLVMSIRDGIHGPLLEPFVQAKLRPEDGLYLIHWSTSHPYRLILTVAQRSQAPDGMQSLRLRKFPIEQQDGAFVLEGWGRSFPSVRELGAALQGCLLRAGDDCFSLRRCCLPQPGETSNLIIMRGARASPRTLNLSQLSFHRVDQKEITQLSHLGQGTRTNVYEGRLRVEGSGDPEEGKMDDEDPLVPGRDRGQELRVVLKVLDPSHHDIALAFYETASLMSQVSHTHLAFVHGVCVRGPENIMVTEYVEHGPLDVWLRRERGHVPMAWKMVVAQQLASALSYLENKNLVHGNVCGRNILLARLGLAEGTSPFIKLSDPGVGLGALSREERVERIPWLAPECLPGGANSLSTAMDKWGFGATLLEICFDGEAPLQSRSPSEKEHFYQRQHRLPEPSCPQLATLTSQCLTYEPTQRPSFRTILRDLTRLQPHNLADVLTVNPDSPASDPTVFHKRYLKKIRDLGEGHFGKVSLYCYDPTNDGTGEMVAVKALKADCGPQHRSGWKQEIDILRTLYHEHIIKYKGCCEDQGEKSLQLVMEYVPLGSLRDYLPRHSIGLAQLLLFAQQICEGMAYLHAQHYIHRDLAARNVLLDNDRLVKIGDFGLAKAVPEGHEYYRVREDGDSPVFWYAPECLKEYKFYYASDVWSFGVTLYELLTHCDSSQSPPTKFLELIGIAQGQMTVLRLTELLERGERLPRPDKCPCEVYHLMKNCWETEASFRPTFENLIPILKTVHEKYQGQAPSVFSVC

CCN(CC)CCCCNc1ncc2cc(-c3cc(OC)cc(OC)c3)c(NC(=O)NC(C)(C)C)nc2n1
% of control [1]: 100%

CN(C(=O)c1cnn2cccnc12)c1cc2c(cc1N1CCOCC1)C(=O)N(C[C@@H](F)C(C)(C)O)C2
dTM [2]: 0.2 K

O=C(NOC[C@H](O)CO)c1ccc(F)c(F)c1Nc1ccc(I)cc1F
% of control [3]: 87%

CNC(=O)Nc1ccc(-c2nc(N3CC4CCC(C3)O4)c3cnn(C4CCC5(CC4)OCCO5)c3n2)cc1
% of control [4]: 92%
